Structures can show the parent of a compound that is named as a salt.
Columns and labels:
[1] = Stability of active ingredients in ethanol formulations with and without hydrochloric acid, stored at 60° C. for 21 days, HPLC; type: physicochemical; details: ethanol formulations with vs without HCl, FIG. 2
Protocol: Further formulations were prepared containing the active ingredient(s) and ethanol with and without hydrochloric acid in order to test the stability of the active ingredients. The formulations were: Formulation (i): azelastine+BDP, with acid Formulation (ii): BDP without acid Formulation (iii): BDP with acid Formulation (iv): azelastine+BDP, without acid The precise ethanol formulations were as follows: [table] The formulations were stored at 60° C. for 21 days and the amounts of the active ingredients measured at intervals during the test period. The amounts of the active ingredients were measured using HPLC with external standards of azelastine free base and BDP. The results are shown graphically in FIG. 2. […] The BDP with no acid and no azelastine was […]. However, the combination of BDP with both acid and azelastine is […].

[2] = Solubility in an HFA/ethanol formulation; type: physicochemical
Excerpt: Azelastine has been marketed as the hydrochloride salt, but the problem is that the hydrochloride salt is not soluble in an HFA/ethanol formulation.

Compound: CN1CCCC(n2nc(Cc3ccc(Cl)cc3)c3ccccc3c2=O)CC1 (centres unmarked) [azelastine, Azelastine]
- stabilisation of the azelastine by including an acid (amount measured by HPLC) [1]: some additional stabilisation

Compound: CN1CCCC(n2nc(Cc3ccc(Cl)cc3)c3ccccc3c2=O)CC1 (centres unmarked) [hydrochloride salt, azelastine hydrochloride]
- solubility in an HFA/ethanol formulation [2]: not soluble
